Tests used:
AAK1 = AAK1 (Homo sapiens, UniProt Q2M2I8); assay: Kinase profiling; format: binding; conditions: read-out: % Ctrl @ 1000 nM
[1] = molecular target: ABL1 (M351T)-phosphorylated (Homo sapiens, UniProt P00519, M351T); assay: Kinase profiling; format: binding; conditions: read-out: % Ctrl @ 1000 nM
[2] = molecular target: ABL1 (Y253F)-phosphorylated (Homo sapiens, UniProt P00519, Y253F); assay: Kinase profiling; format: binding; conditions: read-out: % Ctrl @ 1000 nM
AKT1 = AKT1 (Homo sapiens, UniProt P31749); assay: Kinase profiling; format: binding; conditions: read-out: % Ctrl @ 1000 nM
AURKC = AURKC (Homo sapiens, UniProt Q9UQB9); assay: Kinase profiling; format: binding; conditions: read-out: % Ctrl @ 1000 nM
Chain of AURKC (Q9UQB9 whole entry): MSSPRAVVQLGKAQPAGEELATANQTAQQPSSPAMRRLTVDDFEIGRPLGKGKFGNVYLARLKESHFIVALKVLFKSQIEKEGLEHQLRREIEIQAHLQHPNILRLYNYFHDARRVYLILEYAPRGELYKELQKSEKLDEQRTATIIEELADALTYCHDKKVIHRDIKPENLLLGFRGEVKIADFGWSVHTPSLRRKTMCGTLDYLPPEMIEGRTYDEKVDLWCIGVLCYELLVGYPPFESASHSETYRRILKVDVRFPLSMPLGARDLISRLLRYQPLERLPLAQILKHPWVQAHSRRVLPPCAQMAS

BRAF (V600E) = BRAF (V600E) (Homo sapiens, UniProt P15056, V600E); assay: Kinase profiling; format: binding; conditions: read-out: % Ctrl @ 1000 nM
CAMK1 = CAMK1 (Homo sapiens, UniProt Q14012); assay: Kinase profiling; format: binding; conditions: read-out: % Ctrl @ 1000 nM
CAMK1G = CAMK1G (Homo sapiens, UniProt Q96NX5); assay: Kinase profiling; format: binding; conditions: read-out: % Ctrl @ 1000 nM
CAMK2B = CAMK2B (Homo sapiens, UniProt Q13554); assay: Kinase profiling; format: binding; conditions: read-out: % Ctrl @ 1000 nM
CAMKK1 = CAMKK1 (Homo sapiens, UniProt Q8N5S9); assay: Kinase profiling; format: binding; conditions: read-out: % Ctrl @ 1000 nM
CDK4-cyclinD3 = CDK4-cyclinD3 (Homo sapiens, UniProt P11802); assay: Kinase profiling; format: binding; conditions: read-out: % Ctrl @ 1000 nM
Chain of CDK4-cyclinD3 (P11802 2-303): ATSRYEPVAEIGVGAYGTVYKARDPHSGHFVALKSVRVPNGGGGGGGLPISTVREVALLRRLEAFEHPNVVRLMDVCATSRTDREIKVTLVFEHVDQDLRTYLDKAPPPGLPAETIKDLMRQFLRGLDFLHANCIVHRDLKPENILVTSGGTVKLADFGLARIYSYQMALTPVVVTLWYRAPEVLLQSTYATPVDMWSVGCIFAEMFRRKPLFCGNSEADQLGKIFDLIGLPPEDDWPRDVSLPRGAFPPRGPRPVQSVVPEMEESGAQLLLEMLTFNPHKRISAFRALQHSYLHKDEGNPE
Chain of CDK4-cyclinD3 (P30281 whole entry partner): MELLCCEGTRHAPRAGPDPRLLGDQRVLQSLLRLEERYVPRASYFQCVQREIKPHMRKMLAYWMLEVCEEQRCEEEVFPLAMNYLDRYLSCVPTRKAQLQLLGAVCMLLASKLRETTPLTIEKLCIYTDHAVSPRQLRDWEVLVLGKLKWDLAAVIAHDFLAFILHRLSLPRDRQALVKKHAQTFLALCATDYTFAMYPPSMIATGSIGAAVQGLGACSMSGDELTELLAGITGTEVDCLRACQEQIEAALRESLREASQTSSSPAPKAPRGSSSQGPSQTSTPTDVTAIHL

CSNK1A1L = CSNK1A1L (Homo sapiens, UniProt Q8N752); assay: Kinase profiling; format: binding; conditions: read-out: % Ctrl @ 1000 nM
CSNK1D = CSNK1D (Homo sapiens, UniProt P48730); assay: Kinase profiling; format: binding; conditions: read-out: % Ctrl @ 1000 nM
EGFR = EGFR (Homo sapiens, UniProt P00533); assay: Kinase profiling; format: binding; conditions: read-out: % Ctrl @ 1000 nM
EGFR (G719C) = EGFR (G719C) (Homo sapiens, UniProt P00533, G719C); assay: Kinase profiling; format: binding; conditions: read-out: % Ctrl @ 1000 nM
EGFR (L858R, T790M) = EGFR (L858R, T790M) (Homo sapiens, UniProt P00533, L858R/T790M); assay: Kinase profiling; format: binding; conditions: read-out: % Ctrl @ 1000 nM
Chain of EGFR (L858R, T790M) (P00533 25-1210 T790M/L858R): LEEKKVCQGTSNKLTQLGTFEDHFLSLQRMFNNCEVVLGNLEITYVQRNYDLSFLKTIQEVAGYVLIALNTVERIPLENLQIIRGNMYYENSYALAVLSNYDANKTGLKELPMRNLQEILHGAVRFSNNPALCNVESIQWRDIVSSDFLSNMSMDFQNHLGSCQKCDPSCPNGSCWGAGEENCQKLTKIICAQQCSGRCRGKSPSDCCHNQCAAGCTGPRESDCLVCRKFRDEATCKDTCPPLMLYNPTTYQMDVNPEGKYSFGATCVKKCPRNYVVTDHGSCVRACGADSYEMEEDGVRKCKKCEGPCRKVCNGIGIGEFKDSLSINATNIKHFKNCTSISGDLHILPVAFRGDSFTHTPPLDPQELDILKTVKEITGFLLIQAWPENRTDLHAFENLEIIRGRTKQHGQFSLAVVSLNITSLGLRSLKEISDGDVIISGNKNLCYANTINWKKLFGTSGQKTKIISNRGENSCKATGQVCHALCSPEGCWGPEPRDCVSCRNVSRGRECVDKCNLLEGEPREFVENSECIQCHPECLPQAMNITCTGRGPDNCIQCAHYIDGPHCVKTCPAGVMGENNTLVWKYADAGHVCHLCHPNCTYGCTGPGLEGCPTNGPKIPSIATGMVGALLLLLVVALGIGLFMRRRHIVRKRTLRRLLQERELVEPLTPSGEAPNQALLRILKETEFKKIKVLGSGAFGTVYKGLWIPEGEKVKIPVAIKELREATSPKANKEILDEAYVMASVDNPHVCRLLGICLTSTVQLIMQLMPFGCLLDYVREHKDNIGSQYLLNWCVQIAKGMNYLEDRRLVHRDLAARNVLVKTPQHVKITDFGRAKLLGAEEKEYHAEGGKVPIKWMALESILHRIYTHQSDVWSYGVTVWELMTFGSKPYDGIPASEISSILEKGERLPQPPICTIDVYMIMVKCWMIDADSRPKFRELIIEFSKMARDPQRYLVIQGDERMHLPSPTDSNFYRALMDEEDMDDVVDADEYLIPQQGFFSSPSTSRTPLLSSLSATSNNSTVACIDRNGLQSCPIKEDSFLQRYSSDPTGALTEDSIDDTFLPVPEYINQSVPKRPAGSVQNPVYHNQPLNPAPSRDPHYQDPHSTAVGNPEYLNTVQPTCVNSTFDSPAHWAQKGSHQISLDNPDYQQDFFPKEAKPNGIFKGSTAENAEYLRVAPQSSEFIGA

FGFR2 = FGFR2 (Homo sapiens, UniProt P21802); assay: Kinase profiling; format: binding; conditions: read-out: % Ctrl @ 1000 nM
FGFR3 (G697C) = FGFR3 (G697C) (Homo sapiens, UniProt P22607, G697C); assay: Kinase profiling; format: binding; conditions: read-out: % Ctrl @ 1000 nM
Chain of FGFR3 (G697C) (P22607 23-806 G697C): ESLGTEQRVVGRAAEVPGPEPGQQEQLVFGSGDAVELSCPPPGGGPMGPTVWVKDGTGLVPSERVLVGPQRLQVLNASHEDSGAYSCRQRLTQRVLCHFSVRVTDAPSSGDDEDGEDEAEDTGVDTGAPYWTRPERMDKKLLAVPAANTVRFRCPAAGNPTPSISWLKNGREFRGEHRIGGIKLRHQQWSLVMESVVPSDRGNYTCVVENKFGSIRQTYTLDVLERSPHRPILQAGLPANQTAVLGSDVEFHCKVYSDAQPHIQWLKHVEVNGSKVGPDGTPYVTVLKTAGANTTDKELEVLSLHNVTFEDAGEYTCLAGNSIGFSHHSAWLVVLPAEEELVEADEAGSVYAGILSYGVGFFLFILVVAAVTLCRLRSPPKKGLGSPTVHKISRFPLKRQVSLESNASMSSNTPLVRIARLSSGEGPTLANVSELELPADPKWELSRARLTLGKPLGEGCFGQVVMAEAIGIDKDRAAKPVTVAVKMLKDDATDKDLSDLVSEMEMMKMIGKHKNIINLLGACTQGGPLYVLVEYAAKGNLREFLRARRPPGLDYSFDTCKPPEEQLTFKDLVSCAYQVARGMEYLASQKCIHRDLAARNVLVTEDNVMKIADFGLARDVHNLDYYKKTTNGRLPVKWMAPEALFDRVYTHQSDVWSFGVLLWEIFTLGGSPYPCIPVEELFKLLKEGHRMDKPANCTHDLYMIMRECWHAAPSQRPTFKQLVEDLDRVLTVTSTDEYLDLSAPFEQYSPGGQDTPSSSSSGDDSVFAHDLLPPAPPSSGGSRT

FLT3-autoinhibited = FLT3-autoinhibited (Homo sapiens, UniProt P36888); assay: Kinase profiling; format: binding; conditions: read-out: % Ctrl @ 1000 nM
HIPK4 = HIPK4 (Homo sapiens, UniProt Q8NE63); assay: Kinase profiling; format: binding; conditions: read-out: % Ctrl @ 1000 nM
Chain of HIPK4 (Q8NE63 whole entry): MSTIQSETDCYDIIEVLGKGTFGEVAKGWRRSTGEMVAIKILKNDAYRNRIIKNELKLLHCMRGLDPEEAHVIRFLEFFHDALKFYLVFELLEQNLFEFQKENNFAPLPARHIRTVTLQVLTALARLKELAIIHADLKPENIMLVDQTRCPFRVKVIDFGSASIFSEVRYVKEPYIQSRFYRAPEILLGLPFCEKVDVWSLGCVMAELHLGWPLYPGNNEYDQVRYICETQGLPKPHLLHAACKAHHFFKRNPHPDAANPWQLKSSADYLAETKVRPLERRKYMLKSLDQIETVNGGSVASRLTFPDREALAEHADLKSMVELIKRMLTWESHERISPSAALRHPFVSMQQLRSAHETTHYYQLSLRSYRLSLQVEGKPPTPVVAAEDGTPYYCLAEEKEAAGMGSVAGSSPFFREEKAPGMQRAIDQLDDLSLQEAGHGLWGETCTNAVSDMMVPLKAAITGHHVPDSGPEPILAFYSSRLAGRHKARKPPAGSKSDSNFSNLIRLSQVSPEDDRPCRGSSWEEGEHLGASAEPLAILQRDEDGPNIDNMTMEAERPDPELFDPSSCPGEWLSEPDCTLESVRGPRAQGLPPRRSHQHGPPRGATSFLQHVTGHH

IRAK4 = IRAK4 (Homo sapiens, UniProt Q9NWZ3); assay: Kinase profiling; format: binding; conditions: read-out: % Ctrl @ 1000 nM
KIT (D816V) = KIT (D816V) (Homo sapiens, UniProt P10721, D816V); assay: Kinase profiling; format: binding; conditions: read-out: % Ctrl @ 1000 nM
MST3 = molecular target: T1, MST3 (Homo sapiens, UniProt Q9Y6E0); assay: Kinase profiling; format: binding; conditions: read-out: % Ctrl @ 1000 nM
T1 construct: T7 phage fusion (said for most assays); made in house

NEK2 = molecular target: T2, NEK2 (Homo sapiens, UniProt P51955); assay: Kinase profiling; format: binding; conditions: read-out: % Ctrl @ 1000 nM
T2 construct: T7 phage fusion (said for most assays); made in house
T2 sequence (P51955 whole entry, the tested form may be a part): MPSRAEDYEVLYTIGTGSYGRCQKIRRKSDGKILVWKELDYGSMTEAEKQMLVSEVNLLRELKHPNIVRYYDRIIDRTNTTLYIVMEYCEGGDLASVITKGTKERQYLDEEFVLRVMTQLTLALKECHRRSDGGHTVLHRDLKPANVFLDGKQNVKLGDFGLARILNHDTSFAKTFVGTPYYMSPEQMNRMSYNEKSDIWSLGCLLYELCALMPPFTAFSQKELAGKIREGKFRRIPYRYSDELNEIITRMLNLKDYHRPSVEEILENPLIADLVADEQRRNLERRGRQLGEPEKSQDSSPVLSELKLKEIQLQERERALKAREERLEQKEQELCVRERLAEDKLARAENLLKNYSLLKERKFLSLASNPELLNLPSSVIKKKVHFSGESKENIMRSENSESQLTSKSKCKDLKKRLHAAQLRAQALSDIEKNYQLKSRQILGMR

NLK = molecular target: T3, NLK (Homo sapiens, UniProt Q9UBE8); assay: Kinase profiling; format: binding; conditions: read-out: % Ctrl @ 1000 nM
T3 construct: T7 phage fusion (said for most assays); made in house

PAK6 = PAK6 (Homo sapiens, UniProt Q9NQU5); assay: Kinase profiling; format: binding; conditions: read-out: % Ctrl @ 1000 nM
PFCDPK1 (P.falciparum) = PFCDPK1 (P.falciparum) (Plasmodium falciparum, UniProt P62344); assay: Kinase profiling; format: binding; conditions: read-out: % Ctrl @ 1000 nM
PIK3CA (C420R) = PIK3CA (C420R) (Homo sapiens, UniProt P42336, C420R); assay: Kinase profiling; format: binding; conditions: read-out: % Ctrl @ 1000 nM
Chain of PIK3CA (C420R) (P42336 whole entry C420R): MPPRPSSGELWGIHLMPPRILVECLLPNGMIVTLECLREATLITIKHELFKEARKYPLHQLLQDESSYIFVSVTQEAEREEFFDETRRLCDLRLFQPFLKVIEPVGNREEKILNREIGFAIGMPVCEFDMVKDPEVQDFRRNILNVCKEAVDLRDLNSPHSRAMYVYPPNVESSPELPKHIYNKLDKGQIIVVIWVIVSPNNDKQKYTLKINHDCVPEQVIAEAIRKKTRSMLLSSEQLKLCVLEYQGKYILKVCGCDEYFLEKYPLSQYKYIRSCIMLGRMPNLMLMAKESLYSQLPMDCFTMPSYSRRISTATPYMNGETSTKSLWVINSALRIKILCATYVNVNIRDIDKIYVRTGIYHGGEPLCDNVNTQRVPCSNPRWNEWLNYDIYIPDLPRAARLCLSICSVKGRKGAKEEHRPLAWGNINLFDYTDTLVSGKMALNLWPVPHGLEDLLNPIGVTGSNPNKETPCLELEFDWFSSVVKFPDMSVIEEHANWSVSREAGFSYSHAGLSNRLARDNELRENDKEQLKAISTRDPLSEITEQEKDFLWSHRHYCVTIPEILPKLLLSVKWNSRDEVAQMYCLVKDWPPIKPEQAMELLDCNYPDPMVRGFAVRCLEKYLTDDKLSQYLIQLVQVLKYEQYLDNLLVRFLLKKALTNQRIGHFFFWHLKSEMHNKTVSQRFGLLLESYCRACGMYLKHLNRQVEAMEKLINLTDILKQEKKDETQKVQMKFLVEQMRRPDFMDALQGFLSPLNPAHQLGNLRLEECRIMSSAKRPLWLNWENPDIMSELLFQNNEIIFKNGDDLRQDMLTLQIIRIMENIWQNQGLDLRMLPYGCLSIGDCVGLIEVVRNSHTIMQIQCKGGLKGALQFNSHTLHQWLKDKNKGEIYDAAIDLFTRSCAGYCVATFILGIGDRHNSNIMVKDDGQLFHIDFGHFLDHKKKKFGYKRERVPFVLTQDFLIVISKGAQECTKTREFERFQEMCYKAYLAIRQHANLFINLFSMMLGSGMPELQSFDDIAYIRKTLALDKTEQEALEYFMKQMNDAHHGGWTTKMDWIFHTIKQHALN

PLK2 = PLK2 (Homo sapiens, UniProt Q9NYY3); assay: Kinase profiling; format: binding; conditions: read-out: % Ctrl @ 1000 nM
PRKD1 = PRKD1 (Homo sapiens, UniProt Q15139); assay: Kinase profiling; format: binding; conditions: read-out: % Ctrl @ 1000 nM
PYK2 = PYK2 (Homo sapiens, UniProt Q14289); assay: Kinase profiling; format: binding; conditions: read-out: % Ctrl @ 1000 nM
SIK = SIK (Homo sapiens, UniProt P57059); assay: Kinase profiling; format: binding; conditions: read-out: % Ctrl @ 1000 nM
STK35 = STK35 (Homo sapiens, UniProt Q8TDR2); assay: Kinase profiling; format: binding; conditions: read-out: % Ctrl @ 1000 nM
STK39 = STK39 (Homo sapiens, UniProt Q9UEW8); assay: Kinase profiling; format: binding; conditions: read-out: % Ctrl @ 1000 nM
TIE2 = TIE2 (Homo sapiens, UniProt Q02763); assay: Kinase profiling; format: binding; conditions: read-out: % Ctrl @ 1000 nM
TXK = TXK (Homo sapiens, UniProt P42681); assay: Kinase profiling; format: binding; conditions: read-out: % Ctrl @ 1000 nM
YSK4 = YSK4 (Homo sapiens, UniProt Q56UN5); assay: Kinase profiling; format: binding; conditions: read-out: % Ctrl @ 1000 nM
403 non-mutant kinases = assay: Selectivity Score from kinase profiling
Protocol: Streptavidin-coated magnetic beads were treated with biotinylated small molecule ligands of the kinases for 30 minutes at room temperature to generate affinity resins for kinase assays. The liganded beads were blocked with excess biotin and washed with blocking buffer (SeaBlock (Pierce), 1% BSA, 0.05% Tween 20, 1 mM DTT) to remove unbound ligand and to reduce non-specific phage binding. Binding reactions were assembled by combining kinases, liganded affinity beads, and test compounds in 1× binding buffer (20% SeaBlock, 0.17×PBS, 0.05% Tween 20, 6 mM DTT). Test compounds were prepared as 40× stocks in 100% DMSO and directly diluted into the assay. All reactions were performed in polypropylene 384-well plates in a final volume of 0.04 ml. The assay plates were incubated at room temperature with shaking for 1 hour and the affinity beads were washed with wash buffer (1×PBS, 0.05% Tween 20). The beads were then re-suspended in elution buffer (1×PBS, 0.05% Tween 20, 0.5 μM non-biotinylated affinity ligand) and incubated at room temperature with shaking for 30 minutes. The kinase concentration in the eluates was measured by qPCR.
Selectivity Score or S-score is a quantitative measure of compound selectivity. It is calculated by dividing the number of kinases that compounds bind to by the total number of distinct kinases tested, excluding mutant variants.
S=Number of hits/Number of assays
This value can be calculated using % Ctrl as a potency threshold (below) and provides a quantitative method of describing compound selectivity to facilitate comparison of different compounds.
S(35)=(number of non-mutant kinases with % Ctrl<35)/(number of non-mutant kinases tested)
S(10)=(number of non-mutant kinases with % Ctrl<10)/(number of non-mutant kinases tested)
S(1)=(number of non-mutant kinases with % Ctrl<1)/(number of non-mutant kinases tested)

With Cc1cc(Oc2cc(NC(=O)C3CC3)ncn2)ccc1NC(=O)Nc1ccc(Cl)c(C(F)(F)F)c1 [CBT-102] the remaining activity at 1 µM (AAK1) was 96%, the remaining activity at 1 µM [1] was 65% and the remaining activity at 1 µM [2] was 57%. For the same compound, the remaining activity at 1 µM (AKT1) was 100%, the remaining activity at 1 µM (AURKC) was 33% and the remaining activity at 1 µM (BRAF (V600E)) was 1.8%. It also gave a remaining activity at 1 µM (CAMK1) of 74%, a remaining activity at 1 µM (CAMK1G) of 91% and a remaining activity at 1 µM (CAMK2B) of 97%. The remaining activity at 1 µM (CAMKK1) was 88%, the remaining activity at 1 µM (CDK4-cyclinD3) was 100% and the remaining activity at 1 µM (CSNK1A1L) was 100%. It also gave a remaining activity at 1 µM (CSNK1D) of 77%, a remaining activity at 1 µM (EGFR) of 76% and a remaining activity at 1 µM (EGFR (G719C)) of 66%. The remaining activity at 1 µM (EGFR (L858R, T790M)) was 86%, the remaining activity at 1 µM (FGFR2) was 62% and the remaining activity at 1 µM (FGFR3 (G697C)) was 100%. For the same compound, the remaining activity at 1 µM (FLT3-autoinhibited) was 90%, the remaining activity at 1 µM (HIPK4) was 11% and the remaining activity at 1 µM (IRAK4) was 93%. It also gave a remaining activity at 1 µM (KIT (D816V)) of 18%, a remaining activity at 1 µM (MST3) of 89% and a remaining activity at 1 µM (NEK2) of 98%. The remaining activity at 1 µM (NLK) was 16%, the remaining activity at 1 µM (PAK6) was 94% and the remaining activity at 1 µM (PFCDPK1 (P.falciparum)) was 53%. For the same compound, the remaining activity at 1 µM (PIK3CA (C420R)) was 100%, the remaining activity at 1 µM (PLK2) was 93% and the remaining activity at 1 µM (PRKD1) was 100%. For the same compound, the remaining activity at 1 µM (PYK2) was 93%, the remaining activity at 1 µM (SIK) was 95% and the remaining activity at 1 µM (STK35) was 93%. The remaining activity at 1 µM (STK39) was 100%, the remaining activity at 1 µM (TIE2) was 16% and the remaining activity at 1 µM (TXK) was 100%. The remaining activity at 1 µM (YSK4) was 9.6%, the “Selectivity Score S (1)” value (403 non-mutant kinases; % Ctrl<1, 1000 nM) was 0.032 and the “Selectivity Score S (10)” value (403 non-mutant kinases; % Ctrl<10, 1000 nM) was 0.089. The “Selectivity Score S (35)” value (403 non-mutant kinases; % Ctrl<35, 1000 nM) was 0.151, the “Number of Hits, S (1)” value (403 non-mutant kinases; non-mutant kinases with % Ctrl<1, 1000 nM) was 13 and the “Number of Hits, S (10)” value (403 non-mutant kinases; non-mutant kinases with % Ctrl<10, 1000 nM) was 36. The “Number of Hits, S (35)” value (403 non-mutant kinases; non-mutant kinases with % Ctrl<35, 1000 nM) was 61.

From US20220088016A1, “CANCER TREATMENT USING MULTI-TARGETED KINASE INHIBITOR IN COMBINATION OF PROTEIN KINASE BIOMARKERS” (ZHEJIANG CROWNMAB BIOTECH CO. LTD., priority 2019, published 2022)
